These are literature values, as cited in US20250255842A1, “S[…]-RESOLVING LIPID MEDIATORS FOR TREATING LONG COVID-19” (Solutex GC, S.L., priority 2022, published 2025).

For this series, the system named is thrombus. As to conditions: administration of RvD4; less neutrophil infiltration, more pro-resolving monocytes.

For the molecule `CC/C=C\C[C@H](O)/C=C/C=C\C\C=C/C=C/C=C/[C@@H](O)[C@@H](O)CCC(=O)O` [RvD4, 4S,5R,17S-trihydroxy-6E,8E,10Z,13Z,15E,19Z-docosahexaenoic acid], the Thrombus burden result is listed as “significantly reduced”.
